{"source": "patent US8221975B2", "about": "“Method for detection of microorganism” (Morinaga Milk Industry Co., Ltd., priority 2007, dated 2012)", "test_system": "Enterobacter sakazakii ATCC 6538P", "experiment": "MMS real-time PCR (79 bp) of EMA-treated Enterobacter sakazakii, Ct value", "type": "cell-based", "description": "In the case where the real-time PCR is employed, changes in fluorescent intensities are generally noise levels and about zero if the number of amplification cycles is in the range of 1 to 10. Therefore, the intensities are regarded as sample blanks containing no amplification products. The standard deviation (SD) of the changes is calculated, and a value obtained by multiplying the SD value by 10 is defined as a threshold value. The number of PCR cycles in which a value larger than the threshold value is achieved for the first time referred to as “cycle threshold value (Ct value)”. Therefore, the larger the initial amount of a DNA template in a PCR reaction solution, the smaller the Ct value, while the smaller the amount of the template DNA, the larger the Ct value. Even if the amounts of the template DNA are the same, the higher the proportion of the template where a target region of PCR has been cleaved, the larger the Ct value in PCR reactions for the region.\nA Gram-negative bacterium, Enterobacter sakazakii (Enterobacter sakazakii ATCC 6538P; hereinafter, abbreviated as “sakazakii” in some cases), was cultured in brain-heart infusion (BHI) broth at 37° C., and 5 ml of the culture medium in the logarithmic growth phase was centrifuged at 8,000×g for 15 minutes at 4° C., followed by removal of the supernatant. 5 ml of physiological saline was added to the bacterial cells, and the whole was vigorously stirred and diluted 10-fold. Thus, a live cell suspension was prepared. The number of the live cells in the live cell suspension was determined in a standard agar plate medium and found to be 8.38±0.25 log10 cfu/ml.\nThe live cell suspension (1 ml) was placed in a 1.5-ml microtube, and the microtube was immersed in boiling water for 2 minutes and immediately cooled with ice water, to thereby prepare a injured cell suspension. The cells in the suspension probably include small numbers of live cells and dead cells but include mainly injured cells. Therefore, the cells are simply referred to as “injured cells”. Note that the method of the present invention is originally intended to detect live cells, and microorganism cells distinguished from live cells may be injured cells or dead cells.\nEthidium monoazide (EMA) was added to the live cell suspension and injured cell suspension of sakazakii prepared above at a final concentration of 0, 10, 25, or 100 μg/ml, and the suspensions were allowed to stand under shading at 4° C. for 10 minutes. The suspensions were placed on ice and irradiated for 5 minutes with a 500-W visible light (FLOOD PRF: 100 V, 500 W, IWASAKI ELECTRIC CO., LTD., wavelength: 500 to 700 nm) at a distance of 20 cm from the suspensions. Then, the suspensions were centrifuged at 15,000×g for 10 minutes at 4° C., and the supernatants were removed. An equal volume of physiological saline was added thereto, and the suspensions were stirred and centrifuged while cooling at 15,000×g for 10 minutes at 4° C., followed by removal of the supernatants. An equal volume of brain-heart infusion (BHI) broth was added thereto, and the suspensions were incubated at 37° C. for 2 hours.\nIn the […] EMA treatment, EMA was not added again to the live cell and injured cell suspensions having an EMA concentration of 0, […] The suspensions were allowed to stand under shading at 4° C. for 10 minutes, placed on ice, and irradiated for 5 minutes with a 500-W visible light at a distance of 20 cm from the suspensions.\nEthidium monoazide (EMA) was added to the live cell and injured cell suspensions of sakazakii prepared in the section “1.” at a final concentration of 0, 10, 25 or 100 μg/ml, and the suspensions were allowed to stand under shading at 4° C. for 10 minutes, placed on ice, and irradiated for 5 minutes with a 500-W visible light (FLOOD PRF: 100V, 500 W, IWASAKI ELECTRIC CO., LTD., wavelength: 500 to 700 nm) at a distance of 20 cm from the suspensions. […]", "key": {"[1]": {"conditions": "single-step EMA 10 μg/ml, Injured cell"}, "[2]": {"conditions": "single-step EMA 25 μg/ml, Injured cell"}, "[3]": {"conditions": "single-step EMA 100 μg/ml, Injured cell"}}}
{"smiles": "CC[n+]1c(-c2ccccc2)c2cc(N=[N+]=[N-])ccc2c2ccc(N)cc21", "note": "[EMA, ethidium monoazide]", "values": [{"measurement": "Ct value (mean ± SD, N = 2)", "setting": "[1]", "value": "27.6 ± 0.1"}, {"measurement": "number of times of positive reaction in two PCR assays (i/2)", "setting": "[1]", "value": "(2/2)"}, {"measurement": "Ct value (mean ± SD, N = 2)", "setting": "single-step EMA 10 μg/ml, Live cell", "value": "20.8 ± 0.9"}, {"measurement": "Ct value (mean ± SD, N = 2)", "setting": "[2]", "value": "27.3 ± 1.0"}, {"measurement": "number of times of positive reaction in two PCR assays (i/2)", "setting": "[2]", "value": "(2/2)"}, {"measurement": "Ct value (mean ± SD, N = 2)", "setting": "single-step EMA 25 μg/ml, Live cell", "value": "19.9 ± 1.3"}, {"measurement": "Ct value (mean ± SD, N = 2)", "setting": "[3]", "value": "25.2 ± 0.5"}, {"measurement": "number of times of positive reaction in two PCR assays (i/2)", "setting": "[3]", "value": "(2/2)"}, {"measurement": "Ct value (mean ± SD, N = 2)", "setting": "single-step EMA 100 μg/ml, Live cell", "value": "22.2 ± 1.0"}, {"measurement": "Ct value (mean ± SD, N = 2)", "setting": "two-step EMA 10/10 μg/ml, Live cell", "value": "17.1 ± 1.8"}, {"measurement": "Ct value (mean ± SD, N = 2)", "setting": "two-step EMA 25/10 μg/ml, Live cell", "value": "18.5 ± 2.5"}, {"measurement": "Ct value (mean ± SD, N = 2)", "setting": "two-step EMA 100/10 μg/ml, Injured cell", "value": "27.3, ND^d,e"}, {"measurement": "Ct value (mean ± SD, N = 2)", "setting": "two-step EMA 100/10 μg/ml, Live cell", "value": "22.9 ± 1.0"}]}
